Entries after “also recorded” stand apart in the source; their conditions may differ.
Columns and labels:
[1] = system: spontaneously hypertensive rats; conditions: injection; cited from earlier work
porcine aortic VSM cells = conditions: 14,15-EET 2 μM, chalcone oxide with PDGF and exogenous EETs; cited from earlier work
[2] = system: soluble epoxide hydrolase (sEH); conditions: cited from earlier work
metabolic stability = assay type: in vitro ADME
[3] = system: soluble epoxide hydrolase (sEH); assay: inhibition of soluble epoxide hydrolase; assay type: biochemical, human
Excerpt: Epoxide hydrolases (“EH;” EC 3.3.2.3) are enzymes in the alpha beta hydrolase fold family that add water to 3 membered cyclic ethers termed epoxides. Soluble epoxide hydrolase (sEH) is an enzyme which in endothelial and smooth muscle cells converts EETs to dihydroxy derivatives called dihydroxyeicosatrienoic acids (DHETs). The cloning and sequence of the murine sEH is set forth in Grant et al., J. Biol. Chem. 268(23):17628-17633 (1993). The cloning, sequence, and accession numbers of the human sEH sequence are set forth in Beetham et al., Arch. Biochem. Biophys. 305(1): 197-201 (1993). The evolution and nomenclature of the gene is discussed in Beetham et al., DNA Cell Biol. 14(1):61-71 (1995). Unless otherwise specified, as used herein, the terms “soluble epoxide hydrolase” and “sEH” refer to human sEH. Derivatives of urea are transition state mimetics that form a preferred group of sEH inhibitors. […] Any particular urea derivative or other compound can be easily tested for its ability to inhibit sEH by standard assays, such as the one used in the Examples herein. […] The enzyme also can be detected based on the binding of specific ligands to the catalytic site which either immobilize the enzyme or label it with a probe such as luciferase, green fluorescent protein or other reagent. […]

For `O=C(NC1CCCCC1)NC1CCCCC1` [DCU, N,N′-dicyclohexylurea], the systemic blood pressure [1] is listed as “lowering of blood pressure; also recorded: lower systemic blood pressure”.

For `O=C(c1ccccc1)C1OC1c1ccc(-c2ccccc2)cc1` (stereo not drawn) [4-phenylchalcone oxide, reference compound], the “PDGF-mediated DNA synthesis / mitogenesis” value (porcine aortic VSM cells) is given as “additive increase in mitogenesis” and the “in vitro inhibition of epoxide hydrolases” value [2] is given as “potent”.

With `CCCCCCCCCCCCNC(=O)NC12CC3CC(CC(C3)C1)C2` [ADU, N-adamantyl-N′-dodecyl urea] the metabolic stability (metabolic stability) was “metabolically stable” and the “activity as an inhibitor of sEH” value [3] was “particularly high activity”.

For `CCCCCC1OC1C/C=C\C/C=C\C/C=C\CCCC(=O)O` (stereo not drawn) [14,15-EET], the “PDGF-mediated DNA synthesis / mitogenesis” value (porcine aortic VSM cells) is listed as “increase PDGF-mediated DNA synthesis”.

Reference: patent US20030139469A1, “Use of inhibitors of soluble epoxide hydrolase to inhibit vascular smooth muscle cell proliferation” (THE REGENTS OF THE UNIVERSITY OF CALIFORNIA, priority 2002, published 2003)
